This note sets out measurements from patent US20240294499A1, “TARGETED PROTEIN DEGRADATION USING BIFUNCTIONAL COMPOUNDS THAT BIND UBIQUITIN LIGASE AND TARGET MCL-1 PROTEIN” (Captor Therapeutics S.A., priority 2021, published 2024).

For test [1], the target named is T1, [MCL-1]-[compound of formula (I)]-[CRBN/DDB1] complex (Homo sapiens, UniProt Q07820+Q96SW2). Kind of test: AlphaLISA dose response ternary complex formation assay. It is filed as binding. Particulars: read-out: AlphaLISA dose response Average pEC50 by molecule (converted). In outline: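 EC50 comes from dose–response of AlphaLISA luminescence (excitation 680, emission 615 nm), normalised between DMSO background and an internal positive control, with concentrations past the hook point dropped. Ternary complex formed by mixing bead-bound biotin-hMCL-1 and His-CRBN/DDB1 (protein solutions 40 and 200 nM) with compound in 2% DMSO, 30 min, 25 °C.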
On the technique in general: Bead proximity is the source of the signal in Alpha formats.

The target of test [2] is T2, MCL-1 protein (Homo sapiens, UniProt Q07820). Kind of test: OPM-2 cells: MCL-1 protein degradation, Western blot. It counts as cell-based. Set-up: endogenous in cells; host or cells: OPM-2. Particulars: OPM-2 cell line, 6 h treatment, 100 nM compound, vs DMSO. The source says: The effect of various compounds of the invention and the reference compounds on MCL-1 protein degradation in the OPM-2 cell line was investigated, using the degradation assay protocol below.
(§1) OPM-2 cells were maintained in RPMI-1640 medium, supplemented with penicillin/streptomycin and 10% Fetal Bovine Serum (FBS). During the treatment, FBS concentration was reduced to 1%.
(§2) Compound stocks were pre-diluted in DMSO and added directly to the cells growth medium (final DMSO concentration: 0.5%).
(§3) OPM-2 cells were collected, centrifuged (250 rcf, 5 min), resuspended in a growth medium containing 1% FBS and counted. The cell suspension was then adjusted to 1×10^6 cell/ml using a growth medium containing 1% FBS. Afterwards, 0.5×10^6 cells were seeded on 24-well plates in 0.5 mL of medium per well. Immediately after seeding cells, compounds in appropriate concentrations were added to the cell culture medium.
Following the treatment with the compounds, cells were collected from the plates and suspended in a lysis buffer (2% SDS, 50 mM Tris, pH 8.0, 100 U/ml Pierce Universal Nuclease for Cell Lysis, complete EDTA-free Protease Inhibitor Cocktail) and incubated on ice for 45 min. The amount of protein was determined via BCA assay, and the equal quantity of each sample was loaded on the precast gel for the protein separation. Following the electrophoresis and transfer to the membrane, the membrane was stained with Ponceau (0.1% (w/v) Ponceau in 5% acetic acid). After total protein detection, the stain was washed out using TBST. After the antibody staining for MCL-1 and α-tubulin, the membranes were washed and signals developed.
Densitometric values for MCL-1 were normalized to total protein level (the Ponceau Staining). [%] of protein reduction is calculated in comparison to the cells treated with DMSO, which stand for 0%.
The results for the 6 h treatment with 100 nM compounds are shown in Table 9, using the following labels: • <30% for 0-29% of MCL-1 protein reduction, • ≥30% for 30-49% of MCL-1 protein reduction, • ≥50% for 50-100% of MCL-1 protein reduction.
On the technique in general: In western blotting, separated proteins are transferred to a membrane and probed.

Test [3] addresses T2, MCL-1 protein. Kind of test: OPM-2 cells: MCL-1 protein degradation, Simple Western. It counts as cell-based. Set-up: endogenous in cells; host or cells: OPM-2. The note with it: OPM-2 cell line, 6 h treatment, 100 nM compound, vs DMSO.
Text: The effect of various compounds of the invention and the reference compounds on MCL-1protein degradation in the OPM-2 cell line was investigated, using the degradation assay protocol below.
as §1, §2, §3
Following the treatment with the compounds, cells were collected from the plates and suspended in a lysis buffer (2% SDS, 50 mM Tris, pH 8.0, 100 U/ml Pierce Universal Nuclease for Cell Lysis, cOmplete EDTA-free Protease Inhibitor Cocktail) and incubated on ice for 45 min.
The following steps, including sample loading, protein separation, immunoprobing or labelling, washes and detection analysis was performed using Jess from ProteinSimple, an automatic system for analyzing protein levels in cell lysates (12-230 kDa Jess or Wes separation module 8×25 capillaries, protein normalization assay, no. SM-PN01-1). The Protein of Interest was detected using MCL-1 (D35A5) Rabbit monoclonal antibody (Cell Signaling, #5453, LOT: 4). Antibody was diluted in a ratio of 1:100 in Antibody diluent.
[%] of protein reduction is calculated in comparison to the cells treated with DMSO, which stand for 0%.
The results for the 6 h treatment with 100 nM compounds are shown in Table 9, using the following labels: • <20% for 0-19% of MCL-1 protein reduction, • ≥20% for 20-39% of MCL-1 protein reduction, • ≥40% for 40-100% of MCL-1 protein reduction.

In a further test the test system is MV-4-11 cells. Kind of test: Cell viability assay (CellTiter-Glo), MV-4-11. It counts as cell-based. Particulars: Homo sapiens, MV4-11, 24 hours incubation, 1% FBS, read-out: Average pIC50 by molecule MV-4-11 (converted). In outline: (§4)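 Luminescent ATP readout (CellTiter-Glo) at 24 hours measured viability, expressed relative to DMSO-treated wells. Compound was added directly to the medium as a 9–12-point threefold series starting at 30 uM, at 0.5% final DMSO. The medium contained FBS reduced to 1%.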

In the next test the test system is OPM-2 cells. Kind of test: Cell viability assay (CellTiter-Glo), OPM-2. It is filed as cell-based. The note with it: Homo sapiens, 24 hours incubation, 1% FBS, read-out: Average pIC50 by molecule OPM-2 (converted). The source says:
The effect of various compounds of the invention on the viability of OPM-2, MV-4-11 and ARH-77 cell lines was investigated, using the CTG protocol described below.
OPM-2 and MV-4-11 cell lines are derived from multiple myeloma and acute myeloid leukaemia, respectively. Both cell lines are described in the literature as MCL-1 dependent lines, as opposed to lymphoblast-like ARH-77 cell line, which is described as independent of MCL-1 (Tron A E et al. Nat Commun. 2018; 9: 5341; Caenepeel S et al. Cancer Discov. 2018 December; 8(12):1582-1597).
Cells (OPM-2, MV-4-11 or ARH-77) were seeded on […] in a growth medium with FBS reduced to 1%. Next, compound stocks were pre-diluted in DMSO and added directly to the cells growth medium (final DMSO concentration: 0.5%). Compound concentrations used in this assay: 1/3 dilutions starting at 30 uM (9 to 12 points).
After 24 hours of incubation, cell viability was evaluated using CellTiter-Glo Luminescent Cell Viability Assay (Promega, cat #G7572). Luminescence signal was measured using a CLARIOstar Plus Multi-Mode Microplate Reader (574-590 nm).
Results were normalized to DMSO control.
(In general: ATP-based viability assays read luminescence as a measure of living cells.)

The test system of another test is ARH-77 cells. Kind of test: Cell viability assay (CellTiter-Glo), ARH-77. It is filed as cell-based. Particulars: Homo sapiens, ARH-77, 24 hours incubation, 1% FBS, read-out: Average pIC50 by molecule ARH-77 (converted). In outline:
as §4

The target of test [4] is T1, [MCL-1]-[compound of formula (I)]-[CRBN/DDB1] complex. Kind of test: HTRF ternary complex assay. It counts as binding. The note with it: ternary complex formation; read-out: HTRF ternary complex Average pEC50 by molecule (converted). In outline: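 hMcl-1 and CRBN (mix at 48 nM and 105.6 nM) with Streptavidin-Eu cryptate and anti-6×His-d2 in PPI Europium buffer with 2 mM DTT; compounds in dose-response, 0.5% DMSO. Incubated 180 min at 25° C, TR-FRET 665/620 read. Bell-shaped curve fitted by Gaussian; EC50 reported.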

The next test deals with DMS 114 cells. Kind of test: Cell viability assay (CellTiter-Glo), DMS 114. It counts as cell-based. The note with it: Homo sapiens, DMS-114, 72 h, 72 hours incubation, 10% FBS, read-out: Average pIC50 by molecule DMS 114 (converted). The source says:
The effect of various compounds of the invention on the viability of DMS 114 cell line was investigated, using the CTG protocol described below.
DMS 114 cell line is derived from small-cell lung cancer, which is described in the literature as MCL-1 dependent lines [Yasuda Y et al. Cell Death & Disease 2020; 11: 177].
DMS 114 cells were detached with trypsin and then resuspended in growth medium containing 10% FBS and counted. Cell suspension was then adjusted to 5×10^4 cells/ml using growth medium containing 10% FBS. Afterwards, […] were seeded on 384-well plates (50 μl). Plates were then placed in the incubator overnight until treated. Next day, compounds were added using ECHO 555 liquid handler. Compound concentrations used in this assay: 1/3 dilutions starting at 30 uM (9 to 12 points).
After 72 hours of incubation, cell viability was evaluated using CellTiter-Glo Luminescent Cell Viability Assay (Promega, cat #G7572). Luminescence signal was measured using a CLARIOstar Plus Multi-Mode Microplate Reader (574-590 nm).

T1 sequence (Q07820 whole entry): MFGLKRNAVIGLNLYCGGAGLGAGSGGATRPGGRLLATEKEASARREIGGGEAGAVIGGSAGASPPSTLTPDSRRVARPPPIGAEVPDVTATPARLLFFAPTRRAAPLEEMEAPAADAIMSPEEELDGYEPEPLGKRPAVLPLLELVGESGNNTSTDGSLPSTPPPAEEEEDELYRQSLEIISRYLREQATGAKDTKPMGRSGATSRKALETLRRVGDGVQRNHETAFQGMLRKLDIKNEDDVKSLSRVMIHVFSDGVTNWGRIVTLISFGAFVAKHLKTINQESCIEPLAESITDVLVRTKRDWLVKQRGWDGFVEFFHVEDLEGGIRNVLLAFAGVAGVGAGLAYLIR
T1 sequence (Q96SW2 whole entry): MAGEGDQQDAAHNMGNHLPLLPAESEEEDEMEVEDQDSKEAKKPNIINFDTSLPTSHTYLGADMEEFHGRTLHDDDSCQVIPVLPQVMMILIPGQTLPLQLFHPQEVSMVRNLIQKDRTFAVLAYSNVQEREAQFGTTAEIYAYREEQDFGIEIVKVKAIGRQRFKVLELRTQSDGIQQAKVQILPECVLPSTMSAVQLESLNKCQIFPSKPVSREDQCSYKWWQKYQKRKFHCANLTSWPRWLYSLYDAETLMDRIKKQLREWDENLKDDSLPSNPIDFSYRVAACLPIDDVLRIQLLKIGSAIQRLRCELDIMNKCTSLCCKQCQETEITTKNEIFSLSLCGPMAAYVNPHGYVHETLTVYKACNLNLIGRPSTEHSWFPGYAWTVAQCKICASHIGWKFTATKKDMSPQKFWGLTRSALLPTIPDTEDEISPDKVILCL
T1 sequence (Q16531 whole entry partner): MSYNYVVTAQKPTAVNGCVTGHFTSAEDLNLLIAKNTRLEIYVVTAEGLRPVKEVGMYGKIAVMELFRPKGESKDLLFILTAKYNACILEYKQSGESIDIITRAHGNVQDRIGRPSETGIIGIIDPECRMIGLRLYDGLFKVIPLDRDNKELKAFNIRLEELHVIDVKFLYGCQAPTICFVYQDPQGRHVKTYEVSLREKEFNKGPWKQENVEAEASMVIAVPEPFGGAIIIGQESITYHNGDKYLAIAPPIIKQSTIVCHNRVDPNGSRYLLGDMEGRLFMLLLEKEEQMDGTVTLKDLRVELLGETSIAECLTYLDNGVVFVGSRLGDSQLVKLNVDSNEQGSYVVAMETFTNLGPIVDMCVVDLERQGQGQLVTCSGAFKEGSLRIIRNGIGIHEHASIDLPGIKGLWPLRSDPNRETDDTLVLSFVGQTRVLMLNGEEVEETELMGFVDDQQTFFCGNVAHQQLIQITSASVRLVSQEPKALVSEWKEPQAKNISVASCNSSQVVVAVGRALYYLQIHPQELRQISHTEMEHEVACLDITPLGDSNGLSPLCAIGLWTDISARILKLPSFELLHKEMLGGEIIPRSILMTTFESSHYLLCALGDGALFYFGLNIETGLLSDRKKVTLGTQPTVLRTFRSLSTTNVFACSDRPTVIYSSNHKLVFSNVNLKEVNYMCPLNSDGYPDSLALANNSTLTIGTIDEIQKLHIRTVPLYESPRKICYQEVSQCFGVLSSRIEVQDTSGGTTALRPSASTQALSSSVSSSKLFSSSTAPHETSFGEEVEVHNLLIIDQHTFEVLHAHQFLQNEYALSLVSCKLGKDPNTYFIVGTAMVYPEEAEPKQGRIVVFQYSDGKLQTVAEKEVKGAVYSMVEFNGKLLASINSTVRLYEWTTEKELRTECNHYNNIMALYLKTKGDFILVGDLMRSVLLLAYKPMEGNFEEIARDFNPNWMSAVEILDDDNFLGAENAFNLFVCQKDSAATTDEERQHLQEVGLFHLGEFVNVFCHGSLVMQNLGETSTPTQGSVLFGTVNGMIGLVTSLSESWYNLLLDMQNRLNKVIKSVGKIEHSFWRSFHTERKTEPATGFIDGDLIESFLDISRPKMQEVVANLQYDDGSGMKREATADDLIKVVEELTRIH
T2 sequence (Q07820 whole entry): as the sequence (Q07820 whole entry) above

With `Cc1nn(C)c(C)c1-c1cccc2c(CCCOc3cccc4ccccc34)c(C(=O)O)n(CCN3CCN(C(=O)COc4cccc5c4C(=O)N(C4CCC(=O)NC4=O)C5=O)CC3)c12` (stereo not drawn) [Compound 241, 1-(2-(4-(2-((2-(2,6-dioxopiperidin-3-yl)-1,3-dioxoisoindolin-4-yl)oxy)acetyl)piperazin-1-yl)ethyl)-3-(3-(naphthalen-1-yloxy)propyl)-7-(1,3,5-trimethyl-1H-pyrazol-4-yl)-1H-indole-2-carboxylic acid], the EC50 in test [1] was < 100 nM. The “Western blot, % of protein reduction” value at MCL-1 protein [2] is given as ≥50%. On MCL-1 protein [3], the “Simple Western, % of protein reduction” value is recorded as ≥20%. For the same molecule, in the test with MV-4-11 cells, the IC50 was ≤ 1000 nM.
As to `Cc1nn(C)c(C)c1-c1c(Cl)ccc2c(CCCOc3cccc4ccccc34)c(C(=O)O)n(CCN3CCN(C(=O)CNc4cccc5c4C(=O)N(C4CCC(=O)NC4=O)C5=O)CC3)c12` (stereo not drawn) [Compound 207, 6-chloro-1-{2-[4-(2-{[2-(2,6-dioxopiperidin-3-yl)-1,3-dioxo-2,3-dihydro-1H-isoindol-4-yl]amino}acetyl)piperazin-1-yl]ethyl}-3-[3-(naphthalen-1-yloxy)propyl]-7-(1,3,5-trimethyl-1H-pyrazol-4-yl)-1H-indole-2-carboxylic acid], in test [1], the EC50 is < 100 nM. In addition, the results for the IC50 in the test on MV-4-11 cells, in the test with OPM-2 cells and in the test on ARH-77 cells were ≤ 316 nM, ≤ 1000 nM and > 10000 nM, respectively.
For `Cc1cc(OCCCc2c(C(=O)O)n(CCN3CCN(C(=O)COc4cccc5c4C(=O)N(C4CCC(=O)NC4=O)C5=O)CC3)c3c(-c4c(C)nn(C)c4C)c(Cl)ccc23)cc(C)c1Cl` (stereo not drawn) [Compound 201, 6-chloro-3-(3-(4-chloro-3,5-dimethylphenoxy)propyl)-1-(2-(4-(2-((2-(2,6-dioxopiperidin-3-yl)-1,3-dioxoisoindolin-4-yl)oxy)acetyl)piperazin-1-yl)ethyl)-7-(1,3,5-trimethyl-1H-pyrazol-4-yl)-1H-indole-2-carboxylic acid], the EC50 in test [1] was < 100 nM. At MCL-1 protein [2], the “Western blot, % of protein reduction” value is reported as ≥50%. For the same molecule, the “Simple Western, % of protein reduction” value on MCL-1 protein [3] is listed as ≥20%. Besides, the IC50 was ≤ 100 nM in the test on MV-4-11 cells and ≤ 1000 nM in the test with OPM-2 cells.
Turning to `Cc1nn(C)c(C)c1-c1c(Cl)ccc2c(CCCOc3cccc4ccccc34)c(C(=O)O)n(CCN3CCN(C(=O)COc4cccc5c4C(=O)N(C4CCC(=O)NC4=O)C5=O)CC34CC4)c12` (stereo not drawn) [Compound 210, 6-chloro-1-(2-(7-(2-((2-(2,6-dioxopiperidin-3-yl)-1,3-dioxoisoindolin-4-yl)oxy)acetyl)-4,7-diazaspiro[2.5]octan-4-yl)ethyl)-3-(3-(naphthalen-1-yloxy)propyl)-7-(1,3,5-trimethyl-1H-pyrazol-4-yl)-1H-indole-2-carboxylic acid], the EC50 in test [1] is < 100 nM. The IC50 is ≤ 100 nM in the test with MV-4-11 cells, ≤ 1000 nM in the test with OPM-2 cells and > 10000 nM with ARH-77 cells.
As to `Cc1nn(C)c(C)c1-c1c(Cl)ccc2c(CCCOc3cccc4ccccc34)c(C(=O)O)n(CCN3C[C@@H]4CN(C(=O)COc5cccc6c5C(=O)N(C5CCC(=O)NC5=O)C6=O)C[C@@H]4C3)c12` (stereo partly drawn) [Compound 211, 6-chloro-1-(2-((3aR,6aS)-5-(2-((2-(2,6-dioxopiperidin-3-yl)-1,3-dioxoisoindolin-4-yl)oxy)acetyl)hexahydropyrrolo[3,4-c]pyrrol-2(1H)-yl)ethyl)-3-(3-(naphthalen-1-yloxy)propyl)-7-(1,3,5-trimethyl-1H-pyrazol-4-yl)-1H-indole-2-carboxylic acid], the EC50 in test [1] is < 100 nM. Moreover, the IC50 in the test with MV-4-11 cells is ≤ 316 nM; in the test on OPM-2 cells, ≤ 3160 nM; with ARH-77 cells, > 10000 nM.
In the case of `Cc1nn(C)c(C)c1-c1c(Cl)ccc2c(CCCOc3cccc4c3CCCC4)c(C(=O)O)n(CCN3CCN(C(=O)COc4cccc5c4C(=O)N(C4CCC(=O)NC4=O)C5=O)CC3)c12` (stereo not drawn) [Compound 216, 6-chloro-1-{2-[4-(2-{[2-(2,6-dioxopiperidin-3-yl)-1,3-dioxo-2,3-dihydro-1H-isoindol-4-yl]oxy}acetyl)piperazin-1-yl]ethyl}-3-[3-(5,6,7,8-tetrahydronaphthalen-1-yloxy)propyl]-7-(1,3,5-trimethyl-1H-pyrazol-4-yl)-1H-indole-2-carboxylic acid], the EC50 in test [1] and in test [4] was < 10 nM each time. For the same molecule, the IC50 was ≤ 3160 nM in the test on DMS 114 cells, ≤ 100 nM with MV-4-11 cells, ≤ 100 nM in the test on OPM-2 cells and > 10000 nM in the test on ARH-77 cells.
